# Data reported in US20240109925A1, “Enhanced Anti-Proliferative and Antitumor Immune Effects of Mitochondria-Targeted Hydroxyurea” (The Medical College of Wisconsin, Inc., priority 2021, published 2024).
# Entries after “also recorded” stand apart in the source; their conditions may differ. Read-outs that look alike come from different tables or passages of the source.
# Experiments:
# Assay type in all cases: cell-based
# [1] = tested on: HCT116 human colon cancer cells; experiment: Cell proliferation (cell confluence), IncuCyte Live-Cell Analysis system
# [2] = tested on: MiaPaCa-2 human pancreatic cancer cells; experiment: Cell proliferation, IncuCyte Live-Cell Analysis system
# Text: FIG. 7. Effects of HU and Mito10-HU on proliferation of MiaPaCa-2 human pancreatic cancer cells; MiaPaCa-2 cells treated with HU or Mito10-HU were monitored in the IncuCyte Live-Cell Analysis system. Cell proliferation was monitored in real-time with the continuous presence of indicated treatments until the end of each experiment. Data shown are the means±SD.
# (§1) The following cell lines were obtained from the American Type Culture Collection (Manassas, VA), where they were regularly authenticated: HCT116 (ATCC Cat #CRL-247, human colon cancer cells) and MiaPaCa-2 (ATCC Cat #CRL-1420, human pancreatic cancer cells). All cells were cultured in a humidified incubator at 37° C. and 5% carbon dioxide. HCT116 cells were maintained in RPMI 1640 medium (Thermo Fisher Scientific, Cat #11875), supplemented with 10% fetal bovine serum. MiaPaCa-2 cells were maintained in Dulbecco's Modified Eagle Medium (Thermo Fisher Scientific, Waltham, MA; Cat #11965) supplemented with 10% fetal bovine serum. All cells were stored in liquid nitrogen and used within 20 passages after thawing.
# (§2) The IncuCyte Live-Cell Analysis system (Essen Bioscience Inc., Ann Arbor, MI) was used to monitor cell proliferation (Cheng et al., 2013, 2016; Boyle et al., 2018). As shown in previous publications (Cheng et al., 2013, 2016), this imaging system is probe-free and noninvasive, and enables continuous monitoring of cell confluence over several days. The increase in the percentage of cell confluence was used as a surrogate marker of cell proliferation. In a 96-well plate, cells were plated at 1,000 cells per well in triplicates and left to adhere overnight. Cells were then treated with HU and Mito-HUs, and the cell confluency was recorded over several days in the IncuCyte Live-Cell Analysis system.
# [3] = tested on: HCT116 human colon cancer cells; experiment: Cell proliferation (cell confluence), IncuCyte Live-Cell Analysis system; conditions: for Cell Confluence (%): when control cells reached ~90% confluence, n = 4; for IC50: Homo sapiens, HCT-116, at ~90% confluence of control; for inhibition of proliferation of HCT116 cells / IC50: HCT116
# Text: FIG. 1. Effects of HU and Mito-HUs on proliferation of HCT116 human colon cancer cells (A) Effects of HU and Mito-HUs on the proliferation of HCT116 cells were monitored in the IncuCyte Live-Cell Analysis system. The IncuCyte Analyzer provides real-time updates on cell confluence, based on segmentation of high definition-phase contrast images. Representative cell images were shown as segmentation mask illustrated in brown when control cells reached 90% confluence (vertical solid black line). (B) The IC50 values were determined at the point at which control cells reached ˜90% confluence (vertical solid black line). Relative cell confluence (control is taken as 100%) is plotted against concentration. Dashed lines represent the fitting curves used to determine the IC50 values as indicated. Data shown are the means & SD.
# as §1, §2
# [4] = biological target: T1, mitochondrial complex III (Homo sapiens, UniProt P00156+P47985); experiment: Complex III-dependent oxygen consumption (OCR), Seahorse XF-96, HCT116 cells; conditions: HCT116, 24 hr
# T1 construct: other: mean ± SD; HCT116, 24 hr treatment; Complex III activity (OCR, % of control); other: 0.1 μM, 24 hr, HCT116; n = 4; other: 0.5 μM, 24 hr, HCT116; other: 0.75 μM, 24 hr, HCT116; other: 1 μM, 24 hr, HCT116; Compl
# Protocol: (§3) FIG. 2. Effects of HU and Mito-HUs on the oxygen consumption by mitochondrial complexes I and III (A) Dose-dependent effects of HU, Mito10-HU, Mito12-HU, Mito14-HU, Mito16-HU, and Mito20-HU on complex I- and complex III-dependent oxygen consumption were measured in HCT116 cells. HCT116 cells were treated with HU or Mito-HUs as indicated for 24 hr. Mitochondrial complex I activity (left) and complex III activity (right) were monitored by a Seahorse XF-96 analyzer. Either rotenone (complex I inhibitor) or antimycin A (complex III inhibitor) was acutely added and OCR assayed immediately. (B) The mitochondrial complex I (left) and III (right) dependent oxygen consumption (calculated as rotenone or antimycin A inhibitable OCR) are plotted against concentration of HU and Mito-HUs. Dashed lines represent the fitting curves used for determination of the IC50 values. Data shown are the means G SD.
# (§4) Mitochondrial oxygen consumption was measured using the Seahorse XF-96 Extracellular Flux Analyzer (Agilent, North Billerica, MA) (Cheng et al., 2013, 2016; Boyle et al., 2018; Weinberg and Chandel, 2015). After cells were treated with HU or Mito-HUs for 24 hr, the OCR-based assessment of mitochondrial complex activities was carried out on acutely permeabilized cells in the presence of different mitochondrial substrates, i.e., pyruvate/malate for complex I and duroquinol for complex III (Cheng et al., 2016, 2019; Salabei et al., 2014; Wheaton et al., 2014). Rotenone, malonate, and antimycin A (Sigma-Aldrich, St. Louis, MO) were used as specific inhibitors of mitochondrial complexes I, II, and III, respectively. Briefly, cells that were intact after treatments were immediately permeabilized using the Seahorse XF Plasma Membrane Permeabilizer (Agilent). The mitochondrial complex I-induced OCR was assayed in mannitol and sucrose buffer (Salabei et al., 2014) containing 10 mM pyruvate and 1.5 mM malate (substrates for complex I) and 10 mM malonate (which inhibits complex II activities). The mitochondrial complex III-driven OCR was assayed in a mannitol and sucrose buffer containing 0.5 mM duroquinol (substrate for complex III) as well as […] and 10 mM malonate (which inhibit both complex I and II activities). The IC50 values were determined as previously reported (Cheng et al., 2019).
# mitochondrial complex I = mitochondrial complex I (Homo sapiens, UniProt O75251+O75306+P03886); experiment: Complex I-dependent oxygen consumption (OCR), Seahorse XF-96, HCT116 cells; conditions: HCT116, 24 hr
# Protocol: as §3, §4
# [5] = read-out: IC50 proliferation of HCT116 cells
smiles,measurement,setting,value
"Cc1[nH]nc(C(F)(F)F)c1Cc1sc2c(c1C(=O)N1C[C@](C)(O)CO1)c(=O)n(C)c(=O)n2C(C)C [AZD-3965, reference compound]","antiproliferative effect, each alone (AZD-3965 experiment)","[1]; Mito10-HU (5 μM) or AZD-3965 (100 μM) independently, HCT-116",negligible antiproliferative effects
"NC(=O)NOCCCC[P+](c1ccccc1)(c1ccccc1)c1ccccc1.O=C([O-])C(F)(F)F [Mito4-HU, 4-[(carbamoylamino)oxy]-butyltriphenylphosphonium trifluoroacetate]",inhibition of proliferation of MiaPaCa-2 cells,[2],did not inhibit the proliferation
same,Cell Confluence (%),[3]; 100 μM,92.40%
same,Cell Confluence (%),[3]; 200 μM,90.77%
same,Cell Confluence (%),[3]; 400 μM,80.77%
same,Cell Confluence (%),[3]; 600 μM,47.24%
same,inhibition of proliferation of HCT116 cells,[3]; trifluoroacetate,dose-dependently inhibited proliferation; also recorded: lower than that of HU
same,IC50,[3]; [5],> 600 µM
same,IC50,"[3]; mean ± SD, read-out: IC50 Cell Proliferation (FIG. 1)",> 600 µM
"O=C(NO)NC(=O)NCCCCCCCCCC[P+](c1ccccc1)(c1ccccc1)c1ccccc1.O=C([O-])C(F)(F)F [Mito10-HUNHTPP^+, 10-[(hydroxycarbamoyl)carbamoylamino]-decyltriphenylphosphonium trifluoroacetate]",inhibition of proliferation of HCT116 cells,[3],inhibited HCT116 cell proliferation
"Cc1ccc([P+](CCCCCCCCCCONC(N)=O)(c2ccc(C)cc2)c2ccc(C)cc2)cc1.O=C([O-])C(F)(F)F [Mito10-HUtriMe, 10-[(carbamoylamino)oxy]-decyl-tris-p-tolylphosphonium trifluoroacetate]",effect on complex III-induced oxygen consumption,[4],more potently than Mito10-HU
same,effect on complex I-induced oxygen consumption,mitochondrial complex I,more potently than Mito10-HU
same,IC50,[3]; [5],3.7 µM
"CCCCCCCCCCONC(N)=O [Decyl-HU, decyloxyurea, reference compound]",IC50,[3]; [5],> 600 µM
"CCOC(=O)Oc1c(OC)cc(C(=O)O[C@@H]2C[C@@H]3CN4CCc5c([nH]c6cc(OC)ccc56)[C@H]4C[C@@H]3[C@H](C(=O)OC)[C@H]2OC)cc1OC [syrosingopine, reference compound]","effect on cell proliferation, each alone (syrosingopine experiment)","[1]; Mito10-HU (5 μM) or syrosingopine (7.5 μM) independently, HCT116",minimally affected cell proliferation
